{"source": "paper PMC8400257", "about": "“2-Phenoxy-3-Trichloromethylquinoxalines Are Antiplasmodial Derivatives with Activity against the Apicoplast of Plasmodium falciparum” (Pharmaceuticals, 2021)", "key": {"[1]": {"system": "P. falciparum ART-resistant strain F32-ART5", "assay": "Standard in vitro chemo-sensitivity assay, F32-ART5", "assay_type": "cell-based", "conditions": "Plasmodium falciparum, F32, 48 h, read-out: Mean ± SEM EC50 values F32-ART5", "description": "(§1) The Plasmodium falciparum ART-resistant strain F32-ART5 and its tween ART-sensitive strain F32-TEM [33, 41] were cultivated at 37 °C with 5% CO2 in human red blood cells (EFS, French Blood Bank) diluted to 2% hematocrit in RPMI-1640 medium (Biowest, Nuaillé, France) supplemented with 5% human serum (EFS, French Blood Bank), as previously reported.\n(§2) The chemosensitivity assay was carried out in 96-well culture plates on synchronized ring-stage parasites at 1% parasitemia obtained after D-sorbitol treatment. The antiplasmodial activities were evaluated using the SYBR Green I method. Parasites were exposed for 48 h to a range of concentrations of the different tested compounds. Each drug concentration was tested in triplicates. Parasite pellets were then washed in 1× PBS prior to lysing red blood cells at −20 °C overnight. Then, the plates were thawed and 100 µL of each well were transferred into a black 96-well plate. Next, 100 µL per well of SYBR Green I (Thermo Fisher) diluted at a final concentration of 2× in lysis buffer (20 mM Tris base pH 7.5, 5 mM EDTA, 0.008% w/v saponin, 0.08% w/v Triton X-100) were added and left to incubate for 1 h at room temperature prior to reading the plates on BioTek FLx800 Microplate Fluorescence Reader (λexcitation = 485 nm, λemission = 528 nm). Relative EC50 values were determined using GraphPad Prism software."}, "[2]": {"system": "P. falciparum ART-sensitive strain F32-TEM", "assay": "Standard in vitro chemo-sensitivity assay, F32-TEM", "assay_type": "cell-based", "conditions": "Plasmodium falciparum, F32, 48 h, read-out: Mean ± SEM EC50 values F32-TEM", "description": "as §1, §2"}, "[3]": {"assay": "In vitro cytotoxicity evaluation HepG2 (MTT)", "assay_type": "cell-based, human", "conditions": "human, CC50 HepG2 (µM) ± SD", "description": "For all molecules, the selectivity index was calculated as following SI = CC50/EC50.\nTriplicate assays were performed for each sample. Each plate-well was then microscopically examined for possible precipitate formation before the medium was aspirated from the wells. Next, 100 µL of MTT (3-(4,5-dimethyl-2-thiazolyl)-2,5-diphenyl -2H-tetrazolium bromide) solution (0.5 mg/mL in medium without FBS) was added to each well. […] After this time, the MTT solution was removed and DMSO (100 μL) was added to dissolve the resulting blue formazan crystals. Plates were shaken vigorously (700 rpm) for 10 min. The absorbance was measured at 570 nm with 630 nm as reference wavelength using a BIO-TEK ELx808 Absorbance Microplate Reader (LabX, Midland, ON, Canada). DMSO was used as blank and doxorubicin (purchased from Sigma Aldrich) as positive control. Cell viability was calculated as a percentage of control (cells incubated without compound). […] CC50 values to represent the mean value calculated from three independent experiments."}, "HepG2 cell line": {"system": "HepG2 cell line", "assay": "In vitro alkaline comet assay", "assay_type": "cell-based, human", "description": "The human hepatocarcinoma cell line HepG2 was obtained from the American Type Culture Collection (ATCC, ref. HB-8065). Cells were cultured in Eagle’s minimum essential medium (EMEM, ref. ATCC®® 30-2003TM) and supplemented with 10% heat-inactivated foetal bovine serum, 100 U/mL penicillin, and 0.1 mg/mL streptomycin (all from Gibco). Cells were maintained at 37 °C in a humidified atmosphere with 5% CO2 and used in passage number 11 to 15. Two concentrations of the compound 3i (3.2 and 16 µM) were tested at 2 different times of incubation (2 and 72 h). Briefly, HepG2 cells were seeded at 1.13 × 10^5 cells/mL in 6-well plates (3 mL of cell suspension per well) and incubated at 37 °C in a humidified atmosphere with 5% CO2. After 24 and 94 h of incubation, cells were treated with different concentrations of the compound or the vehicle (0.5% dimethylsulfoxide, DMSO) for 72 and 2 h, respectively. Additionally, in the 2 h treatment plate, cells in an additional well were treated with 1 mM MMS as positive control for the comet assay. After treatment, medium was removed from the wells and cells were washed with phosphate buffered saline (PBS). Finally, cells were trypsinized and trypsin was neutralized with fresh medium. From this point, cells were kept ice-cold to avoid DNA repair.\nThe standard alkaline comet assay was employed for the detection of DNA strand breaks (SBs) and alkali-labile sites (ALS) in cells treated with molecule 3i. Trypsinized HepG2 cells were centrifuged at 125 × g for 5 min at 4 °C and resuspended in cold PBS at 1 x 10^6 cells/mL. For the preparation of the agarose gels, 30 µL of cell suspension were mixed with 140 µL of 1% low melting point agarose in PBS at 37 °C and 2 aliquots of 70 µL of cell/agarose mixture were placed on agarose-precoated microscope slides. Each droplet was covered with a 20 × 20 mm coverslip and, after 2–3 min on a cold metal plate, the coverslips were removed. Then, slides were immersed in lysis solution (2.5 M NaCl, 0.1 M Na2EDTA, 0.01 M Tris base, pH 10, and 1% Triton X-100) at 4 °C for 1 h. After lysis, slides were transferred to the electrophoresis tank and incubated for 40 min at 4 °C in the electrophoresis solution (0.3 M NaOH, 1 mM Na2EDTA, pH > 13) to allow DNA unwinding. After that, electrophoresis was carried out at 1 V/cm for 20 min (4 °C). Then, gels were neutralized and washed by immersing the slides in PBS for 10 min and distilled water for another 10 min (both at 4 °C). Gels were then air-dried at room temperature. Comets were stained by adding 30 µL of […] of 4,6- diamidino-2-phenylindole (DAPI) on top of each gel and placing 22 × 22 mm coverslips on top. Slides were incubated with DAPI at room temperature for 30 min before the analysis. The semi-automated image analysis system Comet Assay IV (Instem, Stone, UK) was used to evaluate 50 comets per gel (i.e., 100 comets/condition). The percentage of DNA in tail was the descriptor used for each comet.\nThe median percentage of DNA in tail for 50 comets was calculated for each of the duplicate gels in each experiment, and the mean of the two medians were then calculated. The mean percentage of DNA in tail of 3 independent experiments and the standard deviation (SD) were calculated."}}, "note": "Entries after “also recorded” stand apart in the source; their conditions may differ.", "data": [{"molecule": "O=[N+]([O-])c1ccc(Oc2nc3ccccc3nc2C(Cl)(Cl)Cl)cc1", "note": "[3i, 2-(4-Nitrophenoxy)-3-trichloromethylquinoxaline]", "values": [{"measurement": "EC50", "setting": "[1]", "result": "400 ± 105", "unit": "nM"}, {"measurement": "EC50", "setting": "[2]", "result": "392 ± 34", "unit": "nM"}, {"measurement": "CC50 at 72 h", "setting": "[3]", "result": "32 ± 6.1", "unit": "µM"}, {"measurement": "In vitro comet assay: DNA strand breaks or alkali labile sites (genotoxicity)", "setting": "HepG2 cell line; HepG2, 3.2 and 16 µM, short (2 h) or long (72 h) exposition", "result": "not genotoxic; also recorded: did not induce DNA strand breaks or alkali labile sites"}, {"measurement": "In vitro comet assay result", "setting": "HepG2 cell line; HepG2, 2 h, 3.2 µM", "result": "negative"}, {"measurement": "In vitro comet assay result", "setting": "HepG2 cell line; HepG2, 2 h, 16 µM", "result": "negative"}, {"measurement": "In vitro comet assay result", "setting": "HepG2 cell line; HepG2, 72 h, 3.2 µM", "result": "negative"}, {"measurement": "In vitro comet assay result", "setting": "HepG2 cell line; HepG2, 72 h, 16 µM", "result": "negative"}]}]}
